Patent publication US7071194B2, “Method for improving respiratory function and inhibiting muscular degeneration” (priority 2000, dated 2006)

Experiments:
child with apneusis = details: buspirone orally 8 mg/day; cited from earlier work
SOD1 mice = test: Respiratory function (tidal volume, respiratory rate) in SOD1 mice, model of familial ALS; assay type: in vivo, mouse
Description: SOD1 mice are mutant mice which provide an animal model for an inherited form of ALS which is more commonly referred to as familial ALS. […] These parameters of respiratory function were subsequently reevaluated 2 minutes after drug treatment.

T8 SCI rats = test: Respiratory function by head-out plethysmograph in conscious rats after T8 contusion SCI; assay type: in vivo, rat; details: for Te (expiratory time) / Ti (inspiratory time) / Tv (tidal volume) / Ve (minute ventilation): 24 hours after SCI
Description: Female Sprague-Dawley rats (250–280 g and 360–390 g; Taconic, Germantown, N.Y.) were anesthetized with 4% chloral hydrate (360 mg/kg, i.p.). An incomplete spinal courd contusion injury was produced at T8 with a weight drop device (10 g×2.5 cm) as previously described (Wrathall et al., 1985). After SCI, manual expression of bladders was performed twice daily until a reflex bladder was established. Animal care also included housing the rats in pairs to reduce isolation-induced stress, maintaining ambient temperature at 22–25° C., and using highly absorbent bedding. No prophylactic antibiotics were given.
Experiments were conducted in unanesthetized, awake, spontaneously breathing rats at 24 hours prior to SCI, at 24 hours p.i. and weekly afterwards at 1,2,3, and 4 weeks p.i. (1) Acclimatization of the Animals. […] Animals were placed in the body cylinder of the plethysmograph (FIG. 1a) for 60 minutes per day for at least 5 days. […] (2) Non-Invasive Measurements of Respiratory Rate, Tidal Volume and Minute Ventilation. Non-invasive measurements of respiratory function in conscious rats were performed with a restrained head-out plethysmograph specially designed for rodents (BUXCO Electronics, Inc., Sharon, Conn.) (FIG. 1a). The plethymograph apparatus has a neck seal that prevents leakage of air from between the animal's neck and the plethymograph opening. Displacement of the thoracic wall produced by the animal's respiratory movements causes changes in the cylinder pressure, which results in air flowing across a pneumotachograph located on the wall of the cylinder. The pressure drop across the pneumotachograph is measured with a pressure transducer and is proportional to the flow. This signal is amplified and integrated into volume. From measurements of volume and flow, a computer and appropriate software provides respiratory parameters, such as respiratory rate (f), tidal volume (Vt), minute ventilation (Ve), peak inspiratory flow, peak expiratory flow, inspiratory time (Ti), expiratory time (Te), and accumulated volume. An additional opening on the wall of the box allows volume calibration by injecting and removing air from the box with a calibrated syringe.
The noise level in the laboratory was kept to a minimum in order not to startle the animals. Further, the animals were visually isolated from the investigators by means of a chamber made of an opaque material that surrounded and covered the front-end of the body plethysmograph (FIG. 1b). Baseline recordings lasted for 4 minutes. (3) Measurement of Ventilatory Response to Carbon Dioxide. For measurement of the ventilatory response to CO2, animals were exposed to air containing 7% CO2. The animals breathed from a funnel fixed in the front wall of a chamber made of an opaque material (FIG. 1b). The animals were exposed to the gas mixture containing 7% CO2 (mixed with 60% O2 and 33% N2) for 5 minutes with recording of respiratory activity for another 2 minutes (a total recording duration of 7 minutes).
The 5HT1A receptor antagonist, p-MPPI (RBI, Natick, Mass.) was also dissolved in 0.9% saline and given i.p. in a dose of 3 mg/kg (pH 7.4 and final volume of 0.5 ml). […] Vehicle solution (VEH) was 0.9% saline and also injected at i.p. (pH 7.4; volume: 0.5 ml/rat).
Baseline respiratory function was measured under room air ventilation and after the animal was stabilized inside a boy cylinder (FIGS. 1a and b) for 30 minutes at each time point prior to SCI and after injury. Immediately following the evaluation of baseline respiration, the animals were let to breathe air containing 7% CO2 for 7 minutes to monitor their ventilatory response to CO2 stimulus (Teng et al., 1998a and 1999).

mdx mutant mice = details: clenbuterol orally 1.0–1.5 mg/kg body weight/day, one year, cited from earlier work
[1] = buspirone 3.0 mg/kg i.p. or s.c. (FIGS. 6 and 7)
[2] = 7% CO2 at 15 & 16 min after buspirone 1.5 mg/kg i.p.
[3] = baseline (room air), 3 & 4 min post buspirone 1.5 mg/kg i.p.
[4] = baseline (room air), 8 & 9 min post buspirone 1.5 mg/kg i.p.
[5] = 24 hours p.i., buspirone 1.5 mg/kg i.p.

Compound | apneusis (child with apneusis) | respiratory frequency (SOD1 mice; [1]) | tidal volume (SOD1 mice; [1]) | respiratory function (tidal volume, respiratory rate) (SOD1 mice; buspirone 3.0 mg/kg subcutaneous, 2 minutes after treatment) | Te (expiratory time) (T8 SCI rats; [2]) | Ti (inspiratory time) (T8 SCI rats; [2]) | Tv (tidal volume) (T8 SCI rats; [2]) [mL] | Ve (minute ventilation) (T8 SCI rats; [2]) [mL/min] | Te (expiratory time) (T8 SCI rats; [3]) | Ti (inspiratory time) (T8 SCI rats; [3]) | Tv (tidal volume) (T8 SCI rats; [3]) [mL] | Ve (minute ventilation) (T8 SCI rats; [3]) [mL/min] | Te (expiratory time) (T8 SCI rats; [4]) | Ti (inspiratory time) (T8 SCI rats; [4]) | Ve (minute ventilation) (T8 SCI rats; [4]) [mL/min] | SCI reduced Vt values after treatment (T8 SCI rats; [5]) | duration of effect on Vt (printed Bt) (T8 SCI rats; [5]) | effect on abnormal respiratory function resulting from T8 SCI (T8 SCI rats; [5]) | increase in myosin concentration of mdx diaphram (DIA) (mdx mutant mice; mdx mice) [%] | soleus (SOL) weight and SOL muscle weight to body weight ratio (mdx mutant mice; normal control and mdx mice)
O=C1CC2(CCCC2)CC(=O)N1CCCCN1CCN(c2ncccn2)CC1 [buspirone] | reverses apneusis | reduces | significantly increases | significantly improved | 0.21 ± 0.03 | 0.17 ± 0.01 | 1.46 ± 0.14 | 240.9 ± 44.8 | 0.27 ± 0.03↑ | 0.19 ± 0.01 | 1.17 ± 0.13 | 171.3 ± 30.1 | 0.40 ± 0.05 | 0.20 ± 0.03 | 101.8 ± 11.4 | levels indiscenible from pre-injury readings | up to 9 minutes | reversed the abnormal respiratory function |  | 
CC(C)(C)NCC(O)c1cc(Cl)c(N)c(Cl)c1 (centres unmarked) [clenbuterol] |  |  |  |  |  |  |  |  |  |  |  |  |  |  |  |  |  |  | 22 | significantly increase
